Reference: paper PMC3883354 (Bioorganic & medicinal chemistry, 2013)
Like-named read-outs stand apart in the source and are kept apart here.

How the values were obtained:
human GV sPLA2 [1] = target: T1, human GV sPLA2 (Homo sapiens, UniProt P39877); experiment: mixed micelle-based modified Dole assay, GV sPLA2 inhibition; format: biochemical; conditions: 0.091 mole fraction inhibitor in mixed micelles; n = 3
T1 sequence (P39877 21-138): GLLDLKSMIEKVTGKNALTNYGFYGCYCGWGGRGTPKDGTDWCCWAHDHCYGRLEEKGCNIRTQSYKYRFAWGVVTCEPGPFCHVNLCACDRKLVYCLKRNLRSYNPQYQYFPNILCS

human GIVA cPLA2 [2] = target: T2, human GIVA cPLA2 (Homo sapiens, UniProt P47712); experiment: mixed micelle-based modified Dole assay, GIVA cPLA2 inhibition; format: biochemical; conditions: 0.091 mole fraction inhibitor in mixed micelles; n = 3; listed as GK187
T2 sequence (P47712 1-749): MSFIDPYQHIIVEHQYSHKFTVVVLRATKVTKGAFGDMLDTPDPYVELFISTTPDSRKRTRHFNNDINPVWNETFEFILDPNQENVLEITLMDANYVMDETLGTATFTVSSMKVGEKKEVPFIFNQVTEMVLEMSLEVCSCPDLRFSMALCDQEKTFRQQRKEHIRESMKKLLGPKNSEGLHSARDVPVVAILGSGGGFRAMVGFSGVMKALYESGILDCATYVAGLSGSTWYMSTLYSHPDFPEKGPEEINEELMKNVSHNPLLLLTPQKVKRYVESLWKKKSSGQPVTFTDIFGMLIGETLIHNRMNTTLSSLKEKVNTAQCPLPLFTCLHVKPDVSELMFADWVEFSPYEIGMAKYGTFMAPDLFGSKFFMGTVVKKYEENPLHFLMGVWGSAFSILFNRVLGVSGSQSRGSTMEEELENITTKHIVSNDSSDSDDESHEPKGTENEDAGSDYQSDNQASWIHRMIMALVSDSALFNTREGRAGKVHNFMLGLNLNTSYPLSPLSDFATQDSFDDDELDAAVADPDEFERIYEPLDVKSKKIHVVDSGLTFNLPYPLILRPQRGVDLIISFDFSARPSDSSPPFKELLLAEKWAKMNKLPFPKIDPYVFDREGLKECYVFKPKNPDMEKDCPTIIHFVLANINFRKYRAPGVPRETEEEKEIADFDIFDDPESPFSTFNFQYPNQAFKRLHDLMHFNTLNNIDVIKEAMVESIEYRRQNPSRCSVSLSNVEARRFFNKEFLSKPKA

human GIVA cPLA2 [3] = target: T2, human GIVA cPLA2; conditions: 0.091 mole fraction inhibitor; cited from earlier work
human GVIA iPLA2 = target: T3, human GVIA iPLA2 (Homo sapiens, UniProt O60733); conditions: cited from earlier work
T3 sequence (O60733 1-806): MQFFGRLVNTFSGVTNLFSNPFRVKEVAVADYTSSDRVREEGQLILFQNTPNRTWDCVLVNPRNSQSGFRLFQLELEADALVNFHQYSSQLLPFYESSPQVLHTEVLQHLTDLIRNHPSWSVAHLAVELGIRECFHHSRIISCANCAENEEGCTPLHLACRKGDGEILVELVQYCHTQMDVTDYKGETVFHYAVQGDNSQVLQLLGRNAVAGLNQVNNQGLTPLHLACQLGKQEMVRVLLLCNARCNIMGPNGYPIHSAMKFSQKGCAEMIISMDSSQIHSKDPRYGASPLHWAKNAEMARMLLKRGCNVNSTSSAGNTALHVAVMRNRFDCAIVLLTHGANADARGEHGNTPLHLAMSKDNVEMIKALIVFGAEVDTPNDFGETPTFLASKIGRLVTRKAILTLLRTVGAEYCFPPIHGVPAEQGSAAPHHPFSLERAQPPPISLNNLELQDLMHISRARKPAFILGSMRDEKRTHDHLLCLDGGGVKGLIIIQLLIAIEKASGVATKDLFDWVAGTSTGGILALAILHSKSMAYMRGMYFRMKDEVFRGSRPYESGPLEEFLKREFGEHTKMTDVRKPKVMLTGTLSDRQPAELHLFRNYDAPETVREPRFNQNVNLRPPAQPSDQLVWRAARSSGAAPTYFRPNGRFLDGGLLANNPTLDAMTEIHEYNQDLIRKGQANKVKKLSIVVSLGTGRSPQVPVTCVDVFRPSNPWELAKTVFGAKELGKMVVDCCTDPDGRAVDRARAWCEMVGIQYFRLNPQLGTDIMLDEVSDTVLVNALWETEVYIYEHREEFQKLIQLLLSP

human GV sPLA2 [4] = target: T1, human GV sPLA2; conditions: 0.091 mole fraction inhibitor; cited from earlier work

For `COc1ccc(CCCCC(=O)C(F)(F)C(F)(F)F)cc1` [6d, 1,1,1,2,2-Pentafluoro-7-(4-methoxyphenyl)heptan-3-one], the “GV sPLA2 % Inhibition at 0.091” value (human GV sPLA2 [1]) was “no significant inhibition” and the “GIVA cPLA2 % Inhibition at 0.091” value (human GIVA cPLA2 [2]) was “no significant inhibition”.

In the case of `O=C(CCCCc1ccccc1)C(F)(F)C(F)(F)F` [FKGK11], the “GIVA cPLA2 % Inhibition at 0.091” value (human GIVA cPLA2 [3]) is listed as “N.D. (N.D. signifies compounds with less than 25% inhibition (or no detectable inhibition))”, the “GVIA iPLA2 % Inhibition at 0.091” value (human GVIA iPLA2; 0.091 mole fraction inhibitor) is listed as 99.4% and the “GVIA iPLA2 XI(50)” value (human GVIA iPLA2; mole fraction of inhibitor for 50% inhibition) is listed as 0.0014 ± 0.0001 mole fraction. The “GV sPLA2 % Inhibition at 0.091” value (human GV sPLA2 [4]) was 28.0%.
